{"source": "patent US6372209B1", "about": "“Vaginal lactobacillus medicant” (Gyne Logix, Inc., priority 1997, dated 2002)", "key": {"[1]": {"experiment": "Cell to preservation matrix ratio: viability counts pre- and post-dry", "type": "physicochemical", "conditions": "30 microliter aliquots", "protocol": "Experiments were conducted to determine the preservative capacity of the suspending medium by addition of different amounts of cells of strain CTV-05 per volume of medium. The Lactobacilli were grown anaerobically on 2 inch squares on MRS agar plates. A 2-inch square of agar is the equivalent of 10 ml of broth. The anticipated yield per plate was 2×10^9 CFUs. Inoculated matrix was preserved in aliquots of 30 microliters."}, "[2]": {"system": "women", "experiment": "Pooled clinical trials with the CTV-05 suppository (Examples 5-7)", "type": "in vivo, human", "text": "The studies presented in Examples 5 6, and 7 have shown that the Lactobacilli of the present invention can be used in a suppository to recolonize the vagina with Lactobacilli. Over fifty women have been included in clinical trials with the Lactobacillus crispatus CTV-05 suppository. […] Furthermore, the present inventors have developed fingerprinting methods which allow the identification of the suppository strain of L. crispatus in human trials."}, "[3]": {"system": "Candida albicans ATCC 60193 (cervical isolate)", "experiment": "Agar overlay zone of inhibition of yeast growth", "type": "cell-based", "protocol": "(§1) MRS agar was allowed to harden at a 5 mm slant. Lactobacillus crispatus CTV-05 was streaked across the diameter of the plate and was grown for 24, 48 or 72 hours under both anaerobic and ambient atmospheres. Control strains of Lactobacillus jensenii CTV-01, Lactobacillus crispatus CTV-02, Lactobacillus crispatus CTV-03, and Lactobacillus crispatus CTV-04 were grown in the same way. The plates were overlayed with YM agar with 10 mM CNNaS (sodium thiocyanate, previously reported to be an inhibitor of yeast growth) or without CNNaS. The agar overlays were inoculated with one of two strains of Candida albicans ATCC 60193 (cervical isolate) or Candida albicans ATCC 14053 (human blood isolate). Zones of inhibition were measured. […] Therefore, Lactobacillus crispatus CTV-05 inhibits yeast growth in vitro."}, "[4]": {"system": "Candida albicans ATCC 14053 (human blood isolate)", "experiment": "Agar overlay zone of inhibition of yeast growth", "type": "cell-based", "protocol": "as §1"}, "[5]": {"conditions": "4 plates/5 ml matrix, 24 hr. Growth Period"}, "[6]": {"conditions": "4 plates/5 ml matrix, 48 hr. Growth Period"}, "[7]": {"conditions": "6 plates/5 ml matrix, 24 hr. Growth Period"}, "[8]": {"conditions": "6 plates/5 ml matrix, 48 hr. Growth Period"}, "[9]": {"conditions": "8 plates/5 ml matrix, 24 hr. Growth Period"}, "[10]": {"conditions": "8 plates/5 ml matrix, 48 hr. Growth Period"}, "[11]": {"conditions": "10 plates/5 ml matrix, 24 hr. Growth Period"}, "[12]": {"conditions": "10 plates/5 ml matrix, 48 hr. Growth Period"}, "[13]": {"conditions": "Lactobacillus grown anaerobically for 24, 48 or 72 hours"}, "[14]": {"conditions": "Lactobacillus grown under ambient atmosphere, with or without CNNaS"}}, "data": [{"substance": "Lactobacillus crispatus CTV-05", "values": [{"measurement": "Actual Yields, Post-dry", "setting": "[1]; [5]", "result": "1.1 × 10^7 CFUs"}, {"measurement": "Actual Yields, Pre-dry", "setting": "[1]; [5]", "result": "7.9 × 10^7 CFUs"}, {"measurement": "Actual Yields, Post-dry", "setting": "[1]; [6]", "result": "6.1 × 10^8 CFUs"}, {"measurement": "Actual Yields, Pre-dry", "setting": "[1]; [6]", "result": "6.0 × 10^8 CFUs"}, {"measurement": "Actual Yields, Post-dry", "setting": "[1]; [7]", "result": "2.1 × 10^7 CFUs"}, {"measurement": "Actual Yields, Pre-dry", "setting": "[1]; [7]", "result": "1.9 × 10^8 CFUs"}, {"measurement": "Actual Yields, Post-dry", "setting": "[1]; [8]", "result": "3.0 × 10^8 CFUs"}, {"measurement": "Actual Yields, Pre-dry", "setting": "[1]; [8]", "result": "7.8 × 10^8 CFUs"}, {"measurement": "Actual Yields, Post-dry", "setting": "[1]; [9]", "result": "3.6 × 10^7 CFUs"}, {"measurement": "Actual Yields, Pre-dry", "setting": "[1]; [9]", "result": "6.9 × 10^7 CFUs"}, {"measurement": "Actual Yields, Post-dry", "setting": "[1]; [10]", "result": "4.3 × 10^8 CFUs"}, {"measurement": "Actual Yields, Pre-dry", "setting": "[1]; [10]", "result": "9.8 × 10^8 CFUs"}, {"measurement": "Actual Yields, Post-dry", "setting": "[1]; [11]", "result": "4.0 × 10^7 CFUs"}, {"measurement": "Actual Yields, Pre-dry", "setting": "[1]; [11]", "result": "6.7 × 10^7 CFUs"}, {"measurement": "Actual Yields, Post-dry", "setting": "[1]; [12]", "result": "4.1 × 10^8 CFUs"}, {"measurement": "Actual Yields, Pre-dry", "setting": "[1]; [12]", "result": "1.5 × 10^8 CFUs"}, {"measurement": "women with normal vaginal flora remaining colonized", "setting": "[2]; after one month, gelatin capsule inserted into the vagina", "result": "greater than 80%"}, {"measurement": "side effects associated with use", "setting": "[2]; over fifty women in clinical trials", "result": "None of the women who received the suppository had any side effects"}, {"measurement": "inhibition of Candida growth", "setting": "[3]; [13]", "result": "effectively inhibited growth"}, {"measurement": "inhibition of Candida growth", "setting": "[3]; [14]", "result": "unable to inhibit"}, {"measurement": "Zone of Inhibition (in millimeters)", "setting": "[3]; Organism Growth Time Period 48 hours", "result": "70 to 0", "unit": "mm"}, {"measurement": "Zone of Inhibition (in millimeters)", "setting": "[3]; Organism Growth Time Period 72 hours", "result": "70 to 0", "unit": "mm"}, {"measurement": "inhibition of Candida growth", "setting": "[4]; [13]", "result": "effectively inhibited growth"}, {"measurement": "inhibition of Candida growth", "setting": "[4]; [14]", "result": "unable to inhibit"}]}]}
